Blank lines part the entries; values can stand above or below the molecule they belong to.
What was measured:
[1] = test system: skin of a subject's left arm; test: Histology of polyphenol-stained (ferric chloride) punch biopsy, treated vs untreated skin; format: in vivo, human; settings: 25% dimethyl isosorbide solution, topical, 24 days, vs untreated skin of same subject
Experimental: The skin of a subject's left arm 2 cm^2 patch (upper under arm above elbow) was treated with a 25% dimethyl isosorbide solution of glucosyl pentagallate for 24 days. Biopsy samples of the treated skin and a similar sample of untreated skin from the same subject's right were then taken, sectioned, and stained for polyphenol (Ferric Chloride stain) and imaged with a light microscope.

[2] = test system: skin of a subject's left arm (elastic fibers); test: Histology of elastin (VVG stained) punch biopsy, treated vs untreated skin; format: in vivo, human; settings: 25% dimethyl isosorbide solution, topical, 24 days, vs untreated skin of same subject
Experimental: The skin of a subject's left arm was treated with a 25% dimethyl isosorbide solution of glucosyl pentagallate for 24 days.

[3] = "at levels of up to 10%"; cited from earlier work
[4] = test system: human cells; settings: human cells in vitro; cited from earlier work

polyphenol (ferric chloride) staining of the dermis, showing glucosyl pentagallate in the dermis [1]: more black staining in the dermis
Compound: O=C(OC[C@H]1O[C@@H](OC(=O)c2cc(O)c(O)c(O)c2)[C@H](OC(=O)c2cc(O)c(O)c(O)c2)[C@@H](OC(=O)c2cc(O)c(O)c(O)c2)[C@@H]1OC(=O)c1cc(O)c(O)c(O)c1)c1cc(O)c(O)c(O)c1 [glucosyl pentagallate]
VVG staining of elastic fibers (levels of elastin fibers) [2]: significant black staining

Compound: NCCCC(=O)O [GABA, γ-aminobutyric acid]
improvement of skin elasticity [3]: up to 10%

Compound: CC1=NC(C(=O)O)CCN1 (stereo not shown) [Ectoin, 1,4,5,6-tetrahydro-2-methyl-4-pyrimidinecarboxylic acid]
cell damage from UV and visible light [4]: prevent cell damage from UV and visible light

Reference: patent US20230240964A1, “SKIN-FIRMING COSMETIC COMPOSITIONS” (Elastintech, Inc., priority 2021, published 2023)
